Each structure is given as a SMILES string. Bounds are passed on as bounds.

As a reminder, the IC50 is the concentration that inhibits the measured activity by half. Low values mean greater potency, high ones weaker potency.

One assay has as its target T1, TRAF6/Uev1A/Ubc13 (Homo sapiens, UniProt Q9Y4K3).
T1 sequence (Q9Y4K3 1-522): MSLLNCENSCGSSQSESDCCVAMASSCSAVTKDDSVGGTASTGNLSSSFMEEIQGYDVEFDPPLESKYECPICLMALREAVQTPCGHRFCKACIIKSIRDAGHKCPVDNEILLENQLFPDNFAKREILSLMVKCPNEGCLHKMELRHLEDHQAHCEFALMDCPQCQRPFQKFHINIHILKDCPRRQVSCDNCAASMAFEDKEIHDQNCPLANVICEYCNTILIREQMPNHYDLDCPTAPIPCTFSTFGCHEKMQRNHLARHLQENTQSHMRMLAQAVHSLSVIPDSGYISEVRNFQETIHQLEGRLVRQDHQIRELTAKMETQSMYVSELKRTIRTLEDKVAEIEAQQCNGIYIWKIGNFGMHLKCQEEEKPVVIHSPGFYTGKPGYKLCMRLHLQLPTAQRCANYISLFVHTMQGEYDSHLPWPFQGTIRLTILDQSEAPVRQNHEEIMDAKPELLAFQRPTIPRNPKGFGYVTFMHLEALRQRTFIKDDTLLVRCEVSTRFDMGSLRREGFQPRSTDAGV
As to the kind of experiment: TRAF6/Uev1A/Ubc13 plate-based ubiquitin ligase assay. The class given is biochemical. An outline of the steps: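 Ligase activity was read as luminescence from anti-Flag/HRP detection of Flag-ubiquitin bound to casein-blocked Ni-plates alongside His-ubiquitin after a 1 h room-temperature reaction. Buffer: 62.5 mM Tris pH 7.5, 6.25 mM MgCl2, 1.0 mM DTT, 2 μM ATP; E1, Uev1a/Ubc13 and TRAF6 added last to start. IC50s derived across compound concentrations.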

A further assay concerns the target APC11/APC2 (Homo sapiens, UniProt Q9NYG5+Q9UJX6). Briefly: APC-11/APC-2 ligase assay (APC auto ubiquitination). The assay is classed as biochemical. The settings on record: APC assay. An outline of the steps:
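His-tagged APC was captured on nickel plates with human E1 (5 ng/well), UbcH5c (20 ng/well), APC (100 ng/well) and Flag-ubiquitin (100 ng/well) in a Tris pH 7.6 reaction buffer containing 2.5 mM ATP, for 1 hour at room temperature. Read-out was anti-Flag/HRP chemiluminescence. IC50 was set against a DMSO control, typically from 6 or 8 concentrations.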

The test system of assay [1] is ICAM-1 expression in A549 cells. As to the kind of experiment: ICAM assay (IL-1 induced ICAM-1/CD54 expression in A549 cells). The assay is classed as cell-based, human. Conditions: Homo sapiens, A549, ICAM assay. Summed up: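 Luminescent immunostaining (anti-CD54, then anti-mouse IgG, 1 h) quantifies ICAM-1 on A549 cells induced 4 h at 37° C by IL-1 (4 μl of 25 ng/ml added). Compound is added 1 h before the cytokine to cells plated overnight at 10,000 per well.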

Chain of APC11/APC2 (Q9NYG5 whole entry): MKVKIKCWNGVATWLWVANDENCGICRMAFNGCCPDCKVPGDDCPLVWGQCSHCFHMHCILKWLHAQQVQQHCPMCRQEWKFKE
Chain of APC11/APC2 (Q9UJX6 whole entry): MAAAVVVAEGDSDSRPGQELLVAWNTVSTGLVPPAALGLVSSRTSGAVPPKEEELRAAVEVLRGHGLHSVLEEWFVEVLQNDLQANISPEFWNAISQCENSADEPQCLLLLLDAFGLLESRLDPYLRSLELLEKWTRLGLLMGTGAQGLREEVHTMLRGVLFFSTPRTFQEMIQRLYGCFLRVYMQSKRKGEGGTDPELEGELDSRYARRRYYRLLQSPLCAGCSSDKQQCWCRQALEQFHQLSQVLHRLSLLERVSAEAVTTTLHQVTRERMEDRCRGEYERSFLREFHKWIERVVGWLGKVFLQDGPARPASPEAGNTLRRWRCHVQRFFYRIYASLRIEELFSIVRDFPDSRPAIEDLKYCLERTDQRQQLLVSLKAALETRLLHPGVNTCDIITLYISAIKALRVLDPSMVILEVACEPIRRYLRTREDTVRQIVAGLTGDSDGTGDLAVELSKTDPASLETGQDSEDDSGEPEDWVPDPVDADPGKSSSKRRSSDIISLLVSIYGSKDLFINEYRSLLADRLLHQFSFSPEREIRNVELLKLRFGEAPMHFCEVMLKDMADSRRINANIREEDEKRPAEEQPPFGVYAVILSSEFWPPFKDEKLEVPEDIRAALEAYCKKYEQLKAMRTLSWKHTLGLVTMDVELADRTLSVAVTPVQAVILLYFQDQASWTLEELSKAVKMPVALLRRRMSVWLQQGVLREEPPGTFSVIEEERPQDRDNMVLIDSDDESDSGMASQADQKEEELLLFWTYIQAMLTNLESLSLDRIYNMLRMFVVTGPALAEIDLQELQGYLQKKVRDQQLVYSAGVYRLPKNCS

Consider `Cc1cc(NS(=O)(=O)c2ccc(Cl)c3nonc23)no1` [compound 368, 7-chloro-N-(5-methylisoxazol-3-yl)-2,1,3-benzoxadiazole-4-sulfonamide], for which the IC50 (on TRAF6/Uev1A/Ubc13; against APC11/APC2; in assay [1]) was no less than 20 µM in each case.
Regarding `COc1ccc(OC)c(NS(=O)(=O)c2ccc(N3CCOCC3)c3nonc23)c1` [compound 369, N-(2,5-dimethoxyphenyl)-7-(morpholin-4-yl)-2,1,3-benzoxadiazole-4-sulfonamide], the IC50 (against TRAF6/Uev1A/Ubc13; against APC11/APC2; in assay [1]) was no less than 20 µM in each case.
With `Cc1cc2cc(NS(=O)(=O)c3ccc(Cl)c4nonc34)ccc2[nH]1` [compound 370, 7-chloro-N-(2-methyl-1H-indol-5-yl)-2,1,3-benzoxadiazole-4-sulfonamide], the IC50 on TRAF6/Uev1A/Ubc13 is no less than 20 µM; against APC11/APC2, no less than 20 µM; in assay [1] it was 1 to 20 µM.
As to `O=S(=O)(Nc1ccc(F)cc1F)c1ccc(Nc2ccc(F)cc2F)c2nonc12` [compound 371, N-(2,4-difluorophenyl)-7-([2,4-difluorophenyl]amino)-2,1,3-benzoxadiazole-4-sulfonamide], the IC50 (against TRAF6/Uev1A/Ubc13; against APC11/APC2; in assay [1]) was no less than 20 µM in each case.
Regarding `O=S(=O)(Nc1ccccc1F)c1ccc(N2CCOCC2)c2nonc12` [compound 372, N-(2-fluorophenyl)-7-(morpholin-4-yl)-2,1,3-benzoxadiazole-4-sulfonamide], the IC50 (on TRAF6/Uev1A/Ubc13; against APC11/APC2; in assay [1]) was no less than 20 µM throughout.
Take `O=[N+]([O-])c1ccc(Nc2ccccc2OC(F)(F)F)c2nonc12` [compound 373]: the half-maximal inhibitory concentration (IC50) against TRAF6/Uev1A/Ubc13 is no less than 20 µM; against APC11/APC2, 1 to 20 µM; in assay [1] it was 1 to 20 µM.
Turning to `O=S(=O)(Nc1ccncn1)c1ccc(Cl)c2nonc12` [compound 374, 7-chloro-N-1,3-pyrimidin-4-yl-2,1,3-benzoxadiazole-4-sulfonamide], the IC50 (at TRAF6/Uev1A/Ubc13; against APC11/APC2; in assay [1]) was no less than 20 µM each time.
Take `Nc1ccc(N2CCOCC2)c2nonc12` [compound 375, 7-(morpholin-4-yl)-2,1,3-benzoxadiazol-4-amine]: the IC50 (against TRAF6/Uev1A/Ubc13; against APC11/APC2; in assay [1]) was no less than 20 µM each time.
With `O=S(=O)(Nc1cccc(F)c1F)c1ccc(Sc2cccc3cccnc23)c2nonc12` [compound 376, N-(2,3-difluorophenyl)-7-(quinolin-8-ylthio)-2,1,3-benzoxadiazole-4-sulfonamide], the IC50 was no less than 20 µM on TRAF6/Uev1A/Ubc13, 1 to 20 µM against APC11/APC2 and no less than 20 µM in assay [1].
Turning to `O=S(=O)(Nc1cccc(F)c1F)c1ccc(Sc2ccncn2)c2nonc12` [compound 377, N-(2,3-difluorophenyl)-7-(pyrimidin-4-ylthio)-2,1,3-benzoxadiazole-4-sulfonamide], the IC50 (at TRAF6/Uev1A/Ubc13; on APC11/APC2; in assay [1]) was no less than 20 µM each time.
As for `COc1ccccc1Sc1ccc(S(=O)(=O)Nc2cccc(F)c2F)c2nonc12` [compound 378, N-(2,3-difluorophenyl)-7-([2-methoxyphenyl]thio)-2,1,3-benzoxadiazole-4-sulfonamide], the IC50 on TRAF6/Uev1A/Ubc13 was no less than 20 µM; at APC11/APC2 it was 1 to 20 µM; in assay [1] it was no less than 20 µM.
For the compound `O=S(=O)(Nc1cccc(F)c1F)c1ccc(Sc2cccc3ccccc23)c2nonc12` [compound 379, N-(2,3-difluorophenyl)-7-(naphthalen-1-ylthio)-2,1,3-benzoxadiazole-4-sulfonamide], the IC50 against TRAF6/Uev1A/Ubc13 is 1 to 20 µM; against APC11/APC2, 1 to 20 µM; in assay [1], no less than 20 µM.
In the case of `O=S(=O)(Nc1ncccc1OCc1ccccc1)c1ccc(Cl)c2nonc12` [compound 380, N-(3-benzyloxypyridin-2-yl)-7-chloro-2,1,3-benzoxadiazole-4-sulfonamide], the IC50 against TRAF6/Uev1A/Ubc13 is no less than 20 µM; against APC11/APC2 it was no less than 20 µM; in assay [1] it was 1 to 20 µM.
Turning to `COc1ccc(C)cc1NS(=O)(=O)c1ccc(Cl)c2nonc12` [compound 381, 7-chloro-N-(2-methoxy-5-methylphenyl)-2,1,3-benzoxadiazole-4-sulfonamide], the IC50 is no less than 20 µM against TRAF6/Uev1A/Ubc13, no less than 20 µM against APC11/APC2 and 1 to 20 µM in assay [1].
For the compound `O=S(=O)(Nc1ncccc1OCc1ccccc1)c1ccc(N2CCOCC2)c2nonc12` [compound 382, N-(3-benzyloxypyridin-2-yl)-7-(morpholin-4-yl)-2,1,3-benzoxadiazole-4-sulfonamide], the IC50 (against TRAF6/Uev1A/Ubc13; at APC11/APC2; in assay [1]) was no less than 20 µM throughout.
On to `O=S(=O)(Nc1cccc2ccc(O)cc12)c1ccc(Cl)c2nonc12` [compound 383, 7-chloro-N-(7-hydroxynaphthalen-1-yl)-2,1,3-benzoxadiazole-4-sulfonamide], for which the IC50 (on TRAF6/Uev1A/Ubc13; against APC11/APC2; in assay [1]) was 1 to 20 µM in each case.
Regarding `COc1ccc(C)cc1NS(=O)(=O)c1ccc(Sc2cccc3cccnc23)c2nonc12` [compound 384, N-(2-methoxy-5-methylphenyl)-7-(quinolin-8-ylthio)-2,1,3-benzoxadiazole-4-sulfonamide], the results for the half-inhibitory concentration (IC50) (at TRAF6/Uev1A/Ubc13; on APC11/APC2; in assay [1]) were 1 to 20 µM, no less than 20 µM and no less than 20 µM, respectively.
Consider `O=S(=O)(Nc1cccc2ccc(O)cc12)c1ccc(N2CCOCC2)c2nonc12` [compound 385, N-(7-hydroxynaphthalen-1-yl)-7-(morpholin-4-yl)-2,1,3-benzoxadiazole-4-sulfonamide], for which the IC50 (on TRAF6/Uev1A/Ubc13; against APC11/APC2; in assay [1]) was no less than 20 µM throughout.
Regarding `COc1cc(C)ccc1NS(=O)(=O)c1ccc(N2CCOCC2)c2nonc12` [compound 386, N-(2-methoxy-4-methylphenyl)-7-(morpholin-4-yl)-2,1,3-benzoxadiazole-4-sulfonamide], the IC50 (against TRAF6/Uev1A/Ubc13; on APC11/APC2; in assay [1]) was no less than 20 µM throughout.
With `Nc1cccc2c(NS(=O)(=O)c3ccc(Cl)c4nonc34)cccc12` [compound 387, N-(5-aminonaphthalen-1-yl)-7-chloro-2,1,3-benzoxadiazole-4-sulfonamide], the figures for the IC50 (against TRAF6/Uev1A/Ubc13; on APC11/APC2; in assay [1]) were no less than 20 µM, no less than 20 µM and 1 to 20 µM, respectively.
As to `O=[N+]([O-])c1ccc(NS(=O)(=O)c2ccc(Cl)c3nonc23)c2ccccc12` [compound 388, 7-chloro-N-(4-nitronaphthalen-1-yl)-2,1,3-benzoxadiazole-4-sulfonamide], the IC50 (against TRAF6/Uev1A/Ubc13; against APC11/APC2; in assay [1]) was no less than 20 µM throughout.
Regarding `Nc1cccc2c(NS(=O)(=O)c3ccc(N4CCOCC4)c4nonc34)cccc12` [compound 389], the IC50 (at TRAF6/Uev1A/Ubc13; on APC11/APC2; in assay [1]) was no less than 20 µM each time.
Turning to `Nc1cccc2c(NS(=O)(=O)c3ccc(Sc4cccc5cccnc45)c4nonc34)cccc12` [compound 390, N-(5-aminonaphthalen-1-yl)-7-(quinolin-8-ylthio)-2,1,3-benzoxadiazole-4-sulfonamide], the IC50 at TRAF6/Uev1A/Ubc13 was 1 to 20 µM; against APC11/APC2 it was 1 to 20 µM; in assay [1], no less than 20 µM.
On to `Nc1ccc(OS(=O)(=O)c2ccc(Cl)c3nonc23)c2ccccc12` [compound 391, 4-aminonaphthalen-1-yl 7-chloro-2,1,3-benzoxadiazole-4-sulfonate], for which the IC50 (at TRAF6/Uev1A/Ubc13; at APC11/APC2; in assay [1]) was 1 to 20 µM each time.
As to `O=S(=O)(Nc1cccc2ccccc12)c1ccc(Cl)c2nonc12` [compound 392, 7-chloro-N-(naphthalen-1-yl)-2,1,3-benzoxadiazole-4-sulfonamide], the values for the IC50 (against TRAF6/Uev1A/Ubc13; against APC11/APC2; in assay [1]) were no less than 20 µM, no less than 20 µM and 1 to 20 µM, respectively.
In the case of `O=S(=O)(Nc1ccc(O)c2ccccc12)c1ccc(Cl)c2nonc12` [compound 393, 7-chloro-N-(4-hydroxynaphthalen-1-yl)-2,1,3-benzoxadiazole-4-sulfonamide], the IC50 (at TRAF6/Uev1A/Ubc13; at APC11/APC2; in assay [1]) was 1 to 20 µM in each case.
For `O=S(=O)(Nc1ccc(OS(=O)(=O)c2ccc(Cl)c3nonc23)c2ccccc12)c1ccc(Cl)c2nonc12` [compound 394, 4-(7-chloro-2,1,3-benzoxadiazole-4-sulfonamido)naphthalen-1-yl 7-chloro-2,1,3-benzoxadiazole-4-sulfonate], the IC50 (against TRAF6/Uev1A/Ubc13; on APC11/APC2; in assay [1]) was 1 to 20 µM each time.
